Format in all cases: cell-based
One test has as its target T1, human Nav1.3 (hSCN3A) (Homo sapiens, UniProt Q9NY46).
T1 construct: expressed in transfected cells; host or cells: HEK293
Nature of the test: Electrophysiology assay (whole cell patch clamp), human Nav1.3 (hSCN3A) expressing HEK293 cells. The note with it: dissociation constant for the inactivated state (Kinact); read-out: activities (Ki) against NaV1.3. As for the experimental part: (§1) Whole cell patch clamp recording is used to assess the efficacy or selectivity of Na channel blocker on human Nav1.3 (hSCN3A) expressing HEK293 cells or human Nav1.7 (hSCN9A) expressing CHO cells. Human Nav1.3 expressing HEK293 cells are grown in growth media which contain: Dulbecco's […] (DMEM), 10% heat-inactivated fetal bovine serum (FBS) (Hyclone Laboratories Inc), 100 microgram/mL penicillin/100 U/mL streptomycin, 150 microgram/mL Zeocin™, and 3 microgram/mL Geneticin. Human […], expressing CHO cells are grown in growth media which contain: HAM/F-12, 9% heat-inactivated FBS (Hyclone Laboratories Inc), and 100 microgram/mL penicillin/100 U/mL streptomycin, and 100 microgram/mL hygromycin.
(§2) Na channel expressing cells are dissociated by 0.05 trypsin-EDTA, and then seeded on cover glass for 24 to 48 hr. […]
(§3) The normalized steady-state inactivation curve is constructed using 2 sec (for vehicle) or 60 sec (for drugs) conditioning pulse to different potentials followed immediately by the test pulse to −10 mV. […] The affinity of drugs to resting state of Na channels (Kresting or Kt) is assessed by 30 msec test pulse from a negative holding potential of −120 or −130 mV, where virtually all channels are in the resting state. Kr value is calculated by a conventional 1:1 binding model: Kresting(Kr)={[drug]Imax,drug/(Imax,control−Imax,drug)} [Math.2] […]
For orientation: Patch clamp records ionic current or voltage across a cell membrane.

For another test, the target named is T2, human Nav1.7 (hSCN9A) (Homo sapiens, UniProt Q15858).
T2 construct: expressed in transfected cells; host or cells: CHO
Description: Electrophysiology assay (whole cell patch clamp), human Nav1.7 (hSCN9A) expressing CHO cells. The note with it: dissociation constant for the inactivated state (Kinact); read-out: activities (Ki) against NaV1.7. On the procedure:
as §1, §2, §3

The next test has as its target T3, human Nav1.5 channels (Homo sapiens, UniProt Q14524).
T3 construct: expressed in transfected cells; host or cells: HEK293
Nature of the test: FRET assay, HEK293 cells expressing human NaV1.5 channels. Conditions: read-out: activities against Nav1.5. On the procedure: (§4) The ability of the pyrrolopyridinone derivatives of the formula (I) to inhibit the NaV1.3, Nav1.7 and Nav1.5 channels is measured by Fluorescence Resonance Energy Transfer (FRET) assay and electrophysiology assay described below.
(§5) This screen is used to determine the effects of compounds on human NaV1.3, human Nav1.7, and human Nav1.5 channels, utilising electrical field stimulation (EFS) system in 96-well plate format on FDSS (Hamamatsu Photonics) platform. The change of membrane potential is monitored with FRET dye pair, oxonol (DiSBAC2(3)) and coumarin (CC2-DMPE).
(§6) Each HEK293 cells expressing human NaV1.3 channels and HEK293 cells expressing human NaV1.5 channels are grown in T225 flasks, in a 5% CO2 humidified incubator to about 80% confluence. Media composition consists of Dulbecco's Modified Eagle Medium (high glucose), 10% FCS, 100 units/mL penicillin, 100 microgram/mL streptomycin and 500 microgram/mL Geneticin™. […]
(§7) The data are analyzed and reported as normalized ratios of intensities measured at […]. […]
(§8) This analysis is performed using a computerized specific program designed for FDSS generated data. Fluorescence ratio values are plotted using XLfit™ to determine an IC50 value for each compound.

The next test has as its target T4, human NaV1.3 channels (Homo sapiens, UniProt Q9NY46).
T4 construct: expressed in transfected cells; host or cells: HEK293
Description: FRET assay, HEK293 cells expressing human NaV1.3 channels. Conditions: read-out: activities against Nav1.3. On the procedure: as §4, §5, §6, §7, §8

For a further test, the target named is T5, human Nav1.7 channels (Homo sapiens, UniProt Q15858).
T5 construct: expressed in transfected cells; host or cells: CHO
Nature of the test: FRET assay, CHO cells expressing human NaV1.7 channels. Conditions: read-out: activities against Nav1.7. As for the experimental part:
as §4, §5
CHO cells expressing human NaV1.7 channels are grown in T225 flasks, in a 5% CO2 humidified incubator to about 80% confluence. Media composition consists of HAM/F12 with GlutaMAX™ I, 10% FCS, 100 units/mL penicillin and 100 microgram/mL hygromycin. […]
as §7, §8

T2 sequence (Q15858 whole entry): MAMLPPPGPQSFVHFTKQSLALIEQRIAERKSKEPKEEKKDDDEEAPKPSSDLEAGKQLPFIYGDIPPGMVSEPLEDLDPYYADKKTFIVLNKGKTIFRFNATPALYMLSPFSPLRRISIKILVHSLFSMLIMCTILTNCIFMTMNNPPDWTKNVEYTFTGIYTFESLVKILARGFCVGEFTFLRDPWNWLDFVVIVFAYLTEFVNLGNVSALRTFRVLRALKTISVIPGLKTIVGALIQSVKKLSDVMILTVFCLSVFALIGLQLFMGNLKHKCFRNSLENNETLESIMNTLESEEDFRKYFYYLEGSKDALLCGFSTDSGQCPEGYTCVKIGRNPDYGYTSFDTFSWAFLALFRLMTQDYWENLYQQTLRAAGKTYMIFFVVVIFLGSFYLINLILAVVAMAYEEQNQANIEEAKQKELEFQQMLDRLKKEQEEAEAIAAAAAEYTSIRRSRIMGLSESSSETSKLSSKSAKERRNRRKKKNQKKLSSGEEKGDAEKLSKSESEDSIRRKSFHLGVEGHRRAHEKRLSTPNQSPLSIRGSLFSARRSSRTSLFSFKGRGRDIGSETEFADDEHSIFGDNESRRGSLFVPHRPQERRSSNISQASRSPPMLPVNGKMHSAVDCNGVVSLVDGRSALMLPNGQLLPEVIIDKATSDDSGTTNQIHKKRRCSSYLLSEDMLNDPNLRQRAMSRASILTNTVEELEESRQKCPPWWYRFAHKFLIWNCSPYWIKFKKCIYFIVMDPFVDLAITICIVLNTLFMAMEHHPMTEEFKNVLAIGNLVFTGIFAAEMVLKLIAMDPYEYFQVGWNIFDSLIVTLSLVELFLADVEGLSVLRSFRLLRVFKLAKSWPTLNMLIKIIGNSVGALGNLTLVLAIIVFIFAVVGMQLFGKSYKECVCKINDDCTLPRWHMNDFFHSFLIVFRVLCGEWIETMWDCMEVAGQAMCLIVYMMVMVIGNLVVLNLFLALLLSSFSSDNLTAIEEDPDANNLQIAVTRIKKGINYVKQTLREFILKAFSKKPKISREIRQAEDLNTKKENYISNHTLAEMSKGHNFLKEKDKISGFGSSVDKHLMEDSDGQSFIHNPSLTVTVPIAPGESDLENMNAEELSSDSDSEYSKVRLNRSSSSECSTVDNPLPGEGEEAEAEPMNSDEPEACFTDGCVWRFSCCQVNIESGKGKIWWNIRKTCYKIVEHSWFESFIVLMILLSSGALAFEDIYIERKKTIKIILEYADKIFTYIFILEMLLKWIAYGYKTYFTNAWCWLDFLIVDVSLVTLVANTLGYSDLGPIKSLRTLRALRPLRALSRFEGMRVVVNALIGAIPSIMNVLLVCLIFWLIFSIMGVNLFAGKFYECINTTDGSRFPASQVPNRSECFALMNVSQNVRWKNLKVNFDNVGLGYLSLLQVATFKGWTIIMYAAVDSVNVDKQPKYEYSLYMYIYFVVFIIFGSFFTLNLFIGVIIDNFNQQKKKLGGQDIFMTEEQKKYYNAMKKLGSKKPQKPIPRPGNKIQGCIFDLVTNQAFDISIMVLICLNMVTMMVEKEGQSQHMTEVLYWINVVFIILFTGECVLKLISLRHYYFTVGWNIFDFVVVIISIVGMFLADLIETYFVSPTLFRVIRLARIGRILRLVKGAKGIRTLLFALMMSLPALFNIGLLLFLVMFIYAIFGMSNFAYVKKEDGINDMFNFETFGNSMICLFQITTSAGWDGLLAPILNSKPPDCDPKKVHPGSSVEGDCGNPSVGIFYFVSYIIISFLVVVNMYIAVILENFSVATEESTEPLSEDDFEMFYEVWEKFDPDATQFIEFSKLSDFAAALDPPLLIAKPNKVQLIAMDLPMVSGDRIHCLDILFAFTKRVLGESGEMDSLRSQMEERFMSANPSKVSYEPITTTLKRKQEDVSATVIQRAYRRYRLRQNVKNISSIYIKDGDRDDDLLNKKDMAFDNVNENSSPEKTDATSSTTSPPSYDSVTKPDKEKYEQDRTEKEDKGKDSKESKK
T5 sequence (Q15858 whole entry): as above
T3 sequence (Q14524 whole entry): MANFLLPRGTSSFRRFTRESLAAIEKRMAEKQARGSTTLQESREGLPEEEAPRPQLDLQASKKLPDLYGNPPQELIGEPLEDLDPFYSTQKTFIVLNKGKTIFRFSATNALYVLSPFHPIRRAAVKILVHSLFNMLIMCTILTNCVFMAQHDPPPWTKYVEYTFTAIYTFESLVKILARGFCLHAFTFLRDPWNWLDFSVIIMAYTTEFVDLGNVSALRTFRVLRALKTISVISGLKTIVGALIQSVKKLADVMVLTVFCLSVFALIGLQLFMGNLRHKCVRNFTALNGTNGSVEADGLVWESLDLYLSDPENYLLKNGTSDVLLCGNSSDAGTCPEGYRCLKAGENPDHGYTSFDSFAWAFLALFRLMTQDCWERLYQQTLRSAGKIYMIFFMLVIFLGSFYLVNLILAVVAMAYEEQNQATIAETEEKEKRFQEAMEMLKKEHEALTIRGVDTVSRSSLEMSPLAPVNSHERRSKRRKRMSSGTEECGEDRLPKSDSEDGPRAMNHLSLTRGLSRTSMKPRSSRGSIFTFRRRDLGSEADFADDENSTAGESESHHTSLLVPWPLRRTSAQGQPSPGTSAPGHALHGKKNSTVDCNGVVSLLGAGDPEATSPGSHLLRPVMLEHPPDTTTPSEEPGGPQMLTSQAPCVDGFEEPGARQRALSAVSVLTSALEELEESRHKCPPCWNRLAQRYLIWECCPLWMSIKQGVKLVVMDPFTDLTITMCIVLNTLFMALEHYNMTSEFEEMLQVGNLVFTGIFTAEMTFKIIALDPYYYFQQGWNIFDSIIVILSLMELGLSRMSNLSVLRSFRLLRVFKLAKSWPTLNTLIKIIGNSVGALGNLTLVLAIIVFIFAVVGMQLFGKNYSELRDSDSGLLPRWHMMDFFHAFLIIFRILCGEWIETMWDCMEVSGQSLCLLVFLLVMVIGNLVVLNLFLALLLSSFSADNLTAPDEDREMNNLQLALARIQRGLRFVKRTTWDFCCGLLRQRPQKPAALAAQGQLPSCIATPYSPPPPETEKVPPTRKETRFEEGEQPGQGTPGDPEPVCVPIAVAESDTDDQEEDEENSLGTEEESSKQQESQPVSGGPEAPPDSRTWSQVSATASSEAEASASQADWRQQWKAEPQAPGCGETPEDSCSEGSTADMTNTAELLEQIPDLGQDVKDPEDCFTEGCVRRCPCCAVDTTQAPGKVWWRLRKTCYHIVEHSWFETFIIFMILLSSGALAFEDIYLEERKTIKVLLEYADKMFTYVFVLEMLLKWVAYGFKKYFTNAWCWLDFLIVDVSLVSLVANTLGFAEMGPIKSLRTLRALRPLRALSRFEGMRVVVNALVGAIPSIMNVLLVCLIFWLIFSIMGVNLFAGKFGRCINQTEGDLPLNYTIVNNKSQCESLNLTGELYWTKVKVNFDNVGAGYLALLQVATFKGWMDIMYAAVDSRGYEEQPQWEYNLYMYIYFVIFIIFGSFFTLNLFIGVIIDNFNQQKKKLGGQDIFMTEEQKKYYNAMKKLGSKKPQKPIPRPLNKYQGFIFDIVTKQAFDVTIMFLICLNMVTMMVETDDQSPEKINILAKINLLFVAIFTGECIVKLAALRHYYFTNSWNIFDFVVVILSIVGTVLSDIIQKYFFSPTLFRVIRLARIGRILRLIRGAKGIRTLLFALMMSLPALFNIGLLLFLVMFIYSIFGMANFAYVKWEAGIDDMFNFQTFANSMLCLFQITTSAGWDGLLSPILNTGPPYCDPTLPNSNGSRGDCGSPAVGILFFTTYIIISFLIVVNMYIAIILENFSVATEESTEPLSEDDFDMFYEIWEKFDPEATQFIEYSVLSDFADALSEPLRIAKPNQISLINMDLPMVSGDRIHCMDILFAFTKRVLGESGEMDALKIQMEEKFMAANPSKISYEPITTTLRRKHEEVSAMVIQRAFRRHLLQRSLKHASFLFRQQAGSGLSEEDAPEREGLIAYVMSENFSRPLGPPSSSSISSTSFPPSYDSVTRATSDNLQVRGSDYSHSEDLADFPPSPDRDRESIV

As for `Cc1cc(C(C)N2Cc3c(ccnc3NC(=O)C(C)C)C2=O)cnc1OCC(F)(F)F` (single isomer, unassigned) [Example 3, N-(2-(1-(5-methyl-6-(2,2,2-trifluoroethoxy)pyridin-3-yl)ethyl)-1-oxo-2,3-dihydro-1H-pyrrolo[3,4-c]pyridin-4-yl)isobutyramide], the Ki at human Nav1.3 (hSCN3A) is 140 nM; on human Nav1.7 (hSCN9A), 91 nM.
`CC(=O)Nc1nccc2c1CN(C(C)c1cnc(OCC(F)(F)F)c(C)c1)C2=O` (single isomer, unassigned) [Example 2, N-(2-(1-(5-methyl-6-(2,2,2-trifluoroethoxy)pyridin-3-yl)ethyl)-1-oxo-2,3-dihydro-1H-pyrrolo[3,4-c]pyridin-4-yl)acetamide]: the IC50 on human Nav1.5 channels was more than 30000 nM; on human NaV1.3 channels, 440 nM; at human Nav1.7 channels, 1100 nM.

The values above are taken from patent publication US9187475B2, “Pyrrolopyridinone derivatives as TTX-S blockers” (RaQualia Pharma Inc., priority 2012, dated 2015).
